Test [1] relates to FXII-FVII pathway. Nature of the test: FXII-FVII pathway activation in J20 mice and WT littermates, effect of EP (Western blotting, FI by ELISA). Type of test: in vivo. As to conditions: EP 0.5 mg/kg i.p. once daily 5 days; for effect of EP on coagulation factor activation in J20 mice: blood 6 h after final treatment; for effect of EP on plasma FI level in WT littermates: ELISA. The procedure:
(§1) J20 mice were purchased from the Mutant Mouse Resource & Research Centers (MMRRC) via the Jackson Laboratory. Hemizygous male J20 mice in C57BL/6J background were bred with WT female mice (C57BL/6J, also from Jackson Laboratory). F1 hemizygous J20 mice were identified by PCR genotyping based on the Jackson Laboratory protocol (https://www/jax.org/strain/006293) and used for experiments. J20 mice and their WT littermates (at the age of 1, 3 and 6 months, male and female) were treated with EP or vehicle i.p. once daily for 5 days, and at 6 h after the last treatment, blood was drawn from the mice.
(§2) Plasma concentrations of Aβ were determined by ELISA, which either detects both Aβ40 and Aβ42 [53] or specifically measures each peptide. In the latter case, ELISA kits from Invitrogen (KHB3481 and KHB3441) were used. Plasma concentration of FI was also measured by ELISA using a kit from GenWay Biotech. The commercial kits were used by following the manufacturers’ instructions.
(§3) Each plasma sample (7.5 μl of plasma per sample) was mixed with 4x loading dye, heated at 95°C for 5 min, and resolved by SDS-PAGE. The separated proteins were transferred to polyvinylidene fluoride membrane, probed with specific antibodies, and detected using Luminata Classico or Luminata Cresendo (Millipore).
For orientation: In western blotting, separated proteins are transferred to a membrane and probed.

The subject of test [2] is plasma Aβ42. Nature of the test: Plasma Aβ42 level in J20 mice and WT littermates, ELISA specific for Aβ42. Type of test: in vivo. As to conditions: 3 months of age, EP 0.5 mg/kg i.p. once daily 5 days. The protocol:
as §1, §2

The subject of test [3] is plasma Aβ40 / endogenous Aβ (FXII-FVII pathway). Nature of the test: Plasma Aβ level in mice treated with EP and/or Aβ40 (ELISA). The note with it: male C57BL/6 mice, EP 0.5 mg/kg i.p. once daily 5 days, n = 3. Type of test: in vivo. The protocol: All experiments were approved by the Institutional Animal Care and Use Committee at the Roswell Park Cancer Institute under protocol 1022M. All mice were housed in individually ventilated pathogen-free cage systems equipped with HEPA filtered air supply and reverse osmosis purified water in a centralized vivarium facility. The facility is controlled with fully automated sensors for light (12-hour dark – 12-hour light cycle), temperature (70°F ± 2°F), humidity and airflow. All mice had free access to standard rodent diet (sterilizable Teklad #2018, with 6% fat and alfalfa free). C57BL/6NTac mice (male) were purchased from Taconic and used in two experiments. In the first experiment, mice at 8–9 weeks of age were treated with vehicle or an anticoagulant once daily for 5 days, and 1 h after the final treatment, the mice were treated with a single dose of Aβ42, followed by blood draw 6 h later. Blood was collected from the mice by cardiac puncture at the time of sacrifice by carbon dioxide and was collected into K3 EDTA-containing tubes (Multivette 600 from Sarstedt), from which plasma samples were prepared. […]
(§4) Plasma concentrations of Aβ were determined by ELISA, which either detects both Aβ40 and Aβ42 [53] or specifically measures each peptide. […] Plasma concentration of FI was also measured by ELISA using a kit from GenWay Biotech. […]
A general note: ELISA stands for enzyme-linked immunosorbent assay.

Test [4] has as its system plasma Aβ. Nature of the test: Plasma Aβ level in J20 mice and WT littermates, ELISA measuring both Aβ40 and Aβ42. Type of test: in vivo. The note with it: EP 0.5 mg/kg i.p. once daily 5 days. The protocol: as §1, §2
The subject of test [5] is plasma Aβ42 (FXII-FVII pathway). The test can be described thus: Plasma Aβ42 level in mice given synthetic Aβ42 after anticoagulant treatment (ELISA). Type of test: in vivo. As to conditions: male C57BL/6 mice, anticoagulant once daily for 5 days (EP 0.1 and 0.5 mg/kg i.p.; DGT 22.5 and 45 mg/kg p.o.), Aβ42 40 μg/kg i.p. 1 h after final dose, blood 6 h later, vs vehicle, mean of n = 3, 'up to' over the two doses. The procedure: All experiments were approved by the Institutional Animal Care and Use Committee at the Roswell Park Cancer Institute under protocol 1022M. All mice were housed in individually ventilated pathogen-free cage systems equipped with HEPA filtered air supply and reverse osmosis purified water in a centralized vivarium facility. The facility is controlled with fully automated sensors for light (12-hour dark - 12-hour light cycle), temperature (70°F ± 2°F), humidity and airflow. All mice had free access to standard rodent diet (sterilizable Teklad #2018, with 6% fat and alfalfa free). C57BL/6NTac mice (male) were purchased from Taconic and used in two experiments. In the first experiment, mice at 8-9 weeks of age were treated with vehicle or an anticoagulant once daily for 5 days, and 1 h after the final treatment, the mice were treated with a single dose of Aβ42, followed by blood draw 6 h later. Blood was collected from the mice by cardiac puncture at the time of sacrifice by carbon dioxide and was collected into K3 EDTA-containing tubes (Multivette 600 from Sarstedt), from which plasma samples were prepared. […] Plasma concentrations of Aβ were determined by ELISA, which either detects both Aβ40 and Aβ42 [53] or specifically measures each peptide. […] Plasma concentration of FI was also measured by ELISA using a kit from GenWay Biotech. […]

Test [6] concerns FXII-FVII pathway. Nature of the test: Plasma coagulation factor activation in mice treated with EP and/or Aβ40 (Western blotting, FI by ELISA). Type of test: in vivo. The note with it: male C57BL/6 mice; EP 0.5 mg/kg i.p. once daily 5 days, then Aβ40 40 μg/kg i.p.; blood 6 h later. The procedure: All experiments were approved by the Institutional Animal Care and Use Committee at the Roswell Park Cancer Institute under protocol 1022M. All mice were housed in individually ventilated pathogen-free cage systems equipped with HEPA filtered air supply and reverse osmosis purified water in a centralized vivarium facility. The facility is controlled with fully automated sensors for light (12-hour dark – 12-hour light cycle), temperature (70°F ± 2°F), humidity and airflow. All mice had free access to standard rodent diet (sterilizable Teklad #2018, with 6% fat and alfalfa free). C57BL/6NTac mice (male) were purchased from Taconic and used in two experiments. […]
as §4, §3

For test [7], the system named is brain amyloid plaque load. As to conditions: Tg2576 mice; chronic treatment with EP at the same dose regimen (∼2.5 mg/kg, i.p., 3 times weekly); cited from earlier work. An excerpt:
(§5) By inhibiting the FXII-FVII pathway, anticoagulants present an interesting dichotomy in impacting AD: Inhibiting procoagulant activity, potentially slowing or ameliorating AD, but also inhibiting plasma Aβ degradation, potentially contributing to brain Aβ accumulation. Indeed, increased coagulation is implicated in AD [42], but there is also evidence that peripheral Aβ moves to the brain [43]. The exact effect of anticoagulants on AD remains unclear. Treatment of AD mice (APP23 mice) with EP (∼2.5 mg/kg, i.p., 3 times weekly) for 6 months reduced brain astrocyte activation and Aβ accumulat ...

In test [8] the test system is brain astrocyte activation and Aβ accumulation. As to conditions: APP23 mice; EP ∼2.5 mg/kg, i.p., 3 times weekly for 6 months; cited from earlier work.
From the text: as §5

The test system of test [9] is plasma Aβ40. The test can be described thus: Plasma Aβ40 level in J20 mice and WT littermates, ELISA specific for Aβ40. Type of test: in vivo. The note with it: 3 months of age, EP 0.5 mg/kg i.p. once daily 5 days. The protocol:
as §1, §2

Consider enoxaparin [EP], for which the “effect of EP on coagulation factor activation in J20 mice” value in test [1] (1 month of age, male and female) was “greatly attenuated the activation of FX, FII, FVII and FI”; in [1] (3 and 6 months of age) it was “strongly inhibited the activation of FX, FII, FVII and FI”. Further, the “effect of EP on plasma FI level in WT littermates” value is “only slightly elevated FI level” in test [1] (1 month of age); “slightly elevate FI level” in test [1] (3 and 6 months of age). In addition, the “ratio of EP-induced increase in plasma Aβ level in J20 mice over that in the WT littermates” value is listed as 63.6 in test [2] (Aβ42, female); 47.3 in test [2] (Aβ42, male); 8.7 in test [4] (1 month of age, female); 9.3 in test [4] (1 month of age, male); 56.9 in test [4] (3 months of age, female); 47.5 in [4] (3 months of age, male). The “ratio of EP-induced increase in plasma Aβ level in J20 mice over that in the WT littermates” value in test [4] (6 months of age, female) came out at 51.2; in [4] (6 months of age, male), 40.4; in [9] (Aβ40, female), 40.1; in test [9] (Aβ40, male), 45.7. In addition, the “increase in plasma level of Aβ42 after EP treatment” value in [2] (J20 mice, female) is listed as 4.7 fold; in [2] (J20 mice, male), 4.3 fold; in test [2] (WT littermates, female), 1.6 fold; in [2] (WT littermates, male) it was 1.7 fold. Moreover, the “increase in plasma level of exogenously administered Aβ40” value in test [3] (Aβ40 40 μg/kg i.p. 1 h after last dose, blood 6 h later) turned out to be 77.4 fold. Moreover, in test [3] (no Aβ40 injected), the “elevation of plasma level of endogenous Aβ” value is recorded as 1.7 fold. Besides, in test [4] (J20 mice, 1 month of age, male or female, n = 3), the “increase in plasma Aβ concentration after EP treatment” value worked out at 2.3 fold. In addition, the “increase in plasma Aβ level after EP treatment” value in [4] (J20 mice, 3 months of age, female, n = 3) was found to be 4.2 fold; in [4] (J20 mice, 3 months of age, male, n = 3) it was 3.7 fold; in test [4] (J20 mice, 6 months of age, female, n = 3), 3.6 fold; in test [4] (J20 mice, 6 months of age, male, n = 3), 3.4 fold. Besides, in [4] (WT littermates, regardless of age or gender, blood 6 h after final treatment, n = 3), the “elevation of plasma Aβ concentration” value is “approximately 1.6 fold”. The “increase in plasma level of Aβ42” value in test [5] is listed as “up to 73.3 fold”. In addition, the “effect of EP on Aβ40-induced activation of coagulation factors” value in test [6] was “prevents the activation of FX, FII, FVII and FI”. For the same compound, in test [7], the “effect on brain amyloid plaque load” value is “significantly increased brain amyloid plaque load”. For the same compound, the “effect on brain astrocyte activation and Aβ accumulation” value in test [8] was “reduced brain astrocyte activation and Aβ accumulation”. For the same compound, the “increase in plasma level of Aβ40 after EP treatment” value in test [9] (J20 mice, female) was 4.3 fold; in test [9] (J20 mice, male) it was 3.6 fold; in [9] (WT littermates, female), 1.9 fold; in test [9] (WT littermates, male) it was 1.6 fold.

On to `[H]/N=C(/N)c1ccc(NCc2nc3cc(C(=O)N(CCC(=O)O)c4ccccn4)ccc3n2C)cc1` [DGT, dabigatran], for which the “increase in plasma level of Aβ42” value in test [5] is recorded as “up to 21.3 fold”.

The values are drawn from paper PMC5814162, “Anticoagulants inhibit proteolytic clearance of plasma amyloid beta” (Oncotarget, 2017).
